Results from US20240343747A1, “Heteroaryl compounds as inhibitors of TYK2, composition and application thereof” (Accro Bioscience (HK) Limited, priority 2021, published 2024).
Values after ≈ are worked out from the molar mass of the structure shown.

Columns and labels:
[1] = Kinetic solubility test; type: physicochemical; conditions: for kinetic solubility (in words): conclusion from Table 6; for solubility kinetic at 2 h: phosphate buffer, aqueous buffer, kinetic from dmso stock, 50 mM PB pH 7.4
Description: • 1. 10 μL of test and control compounds (10 mM) in DMSO was added into lower chambers of Whatman mini-uniprep vials, respectively. • 2. Added 490 μL of 50 mM PB (pH 7.4) into lower chambers of the Whatman mini-uniprep vials, respectively. • 3. […] Shook the mini-uniprep vials on a Barnstead shaker for 2 hours at room temperature at the speed of 800 rpm. • 5. Centrifuged 20 minutes (e.g. 4000 rpm) • 6. Compressed mini-unipreps to prepare the filtrates for injection into UPLC system to calculate the concentration with standard curve.

[2] = target: hERG channel (Homo sapiens (Human), UniProt Q12809); test: cell-based
Chain of hERG channel (Q12809 whole entry): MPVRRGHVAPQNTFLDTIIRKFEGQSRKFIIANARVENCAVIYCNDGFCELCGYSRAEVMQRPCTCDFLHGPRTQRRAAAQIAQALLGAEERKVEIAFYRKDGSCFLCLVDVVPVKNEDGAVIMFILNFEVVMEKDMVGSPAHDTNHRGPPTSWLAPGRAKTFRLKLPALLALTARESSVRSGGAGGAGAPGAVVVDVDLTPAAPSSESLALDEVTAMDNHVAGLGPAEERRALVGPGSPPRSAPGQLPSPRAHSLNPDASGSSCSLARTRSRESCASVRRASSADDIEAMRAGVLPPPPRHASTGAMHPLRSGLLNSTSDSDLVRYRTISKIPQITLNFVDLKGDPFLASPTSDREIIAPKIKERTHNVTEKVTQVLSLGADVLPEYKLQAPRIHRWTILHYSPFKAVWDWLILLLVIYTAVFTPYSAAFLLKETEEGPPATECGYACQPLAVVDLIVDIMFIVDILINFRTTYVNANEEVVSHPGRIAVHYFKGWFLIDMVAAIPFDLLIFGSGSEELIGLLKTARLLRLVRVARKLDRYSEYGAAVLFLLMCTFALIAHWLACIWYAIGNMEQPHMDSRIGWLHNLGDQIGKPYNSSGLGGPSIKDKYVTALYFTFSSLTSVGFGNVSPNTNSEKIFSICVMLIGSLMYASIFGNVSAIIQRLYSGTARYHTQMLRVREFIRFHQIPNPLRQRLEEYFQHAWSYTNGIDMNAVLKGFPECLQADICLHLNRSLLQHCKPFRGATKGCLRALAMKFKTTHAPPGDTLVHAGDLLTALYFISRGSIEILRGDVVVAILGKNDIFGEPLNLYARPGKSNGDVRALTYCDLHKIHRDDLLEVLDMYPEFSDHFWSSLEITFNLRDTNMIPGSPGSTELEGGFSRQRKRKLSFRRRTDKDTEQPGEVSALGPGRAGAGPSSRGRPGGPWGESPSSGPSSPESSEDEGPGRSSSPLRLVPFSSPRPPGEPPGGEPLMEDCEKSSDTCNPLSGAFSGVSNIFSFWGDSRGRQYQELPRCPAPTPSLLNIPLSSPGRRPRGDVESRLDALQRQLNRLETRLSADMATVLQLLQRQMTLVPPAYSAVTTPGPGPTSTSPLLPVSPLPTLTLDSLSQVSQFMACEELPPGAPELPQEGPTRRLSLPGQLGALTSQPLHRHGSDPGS
Description: Chinese hamster ovary (CHO) cell line, CHO-hERG cells were used in this study. CHO-hERG cells were derived from Sophion Biosciences Inc. (Ballerup, Denmark) in Suzhou, China. The cell reserve fluid is frozen in liquid nitrogen tanks. Each batch of stored cell fluid is tested for mycoplasma contamination. The cells were no longer used after 30 generations.
The whole cell patch clamp technique was used to record hERG current at room temperature. The patch-clamp amplifier outputs signals through […] conversion and 2.9 KHz low-pass filtering. Data records were collected by Patchmaster Pro software.
Cells were planted in a cell recording tank and placed on an inverted microscope platform. One cell in the recording tank was randomly selected for experiment. The perfusion system was fixed on an inverted microscope platform and cells were continuously irrigated with ECS.
Manual patch clamp recording microelectrode was prepared with capillary glass tube, which was filled with intracellular fluid. On the day of the patch clamp test, the electrodes were prepared using a borosilicate glass tube (GC150TF-10, Harvard Apparatus Co. UK). The resistance is between 2-5 MΩ after the electrode is filled with ICS.
The clamping voltage was −80 mV, and the first step was depolarized to +60 mV for 850 ms to open the hERG channel. The voltage is then set to −50 mV and maintained for 1275 ms, resulting in a rebound current or tail current, the peak of which is measured and used for analysis. Finally, the voltage is restored to the clamping voltage (−80 mV). During the test, the command voltage program was repeated every 15 s.
At the beginning of recording the perfusion of the solvent control working solution, the test substance/positive control working solution to be tested can be poured after monitoring the tail current peak until more than 3 scanning curves are stable, until the inhibition of the test substance/positive control working solution to the hERG current peak reaches a stable state. Generally, the most recent three consecutive peak values of the current curve basically coincide as a criterion to judge whether the state is stable. After reaching a stable state, continue to pour one concentration of the test sample. One or more test subjects/positive controls, or multiple concentrations of the same drug, can be tested on a cell, and the different test subjects/positive controls need to be rinsed with a solvent control working fluid until the hERG current returns to more than 80% of its pre-drug level.
The concentration of positive control cisapride was 0.1 μM, and two cells were repeated.

[3] = Plasma protein binding test, dog; type: in vitro ADME
Description: (§1) • 1. Test compound and control compound were dissolved in dimethyl sulfoxide (DMSO) to achieve 10 mM stock solutions. DMSO working solutions were prepared at 400 μM. To prepare the loading matrix, compound working solutions (5 μL) were added in a 1:200 ratio to blank matrix (995 μL), and mixed thoroughly. • 2. To prepare the time zero (TO) samples to be used for recovery determination, 50 μL aliquots of loading matrix were transferred in triplicate to the sample collection plate. The samples were immediately matched with opposite blank buffer to obtain a final volume of 100 μL of 1:1 matrix/dialysis buffer (v/v) in each well. 500 μL of stop solution were added to these TO samples. They were then stored at 2-8° C. pending further processes along with other post-dialysis samples. • 3. To load the dialysis device, an aliquot of 150 μL of the loading matrix was transferred to the donor side of each dialysis well in triplicate, and 150 μL of the dialysis buffer was loaded to the receiver side of the well. The dialysis plate was placed in a humidified incubator at 37° C. with 5% CO2 on a shaking platform that rotated slowly (about 100 rpm) for 4 hours • 4. At the end of the dialysis, aliquots of 50 μL of samples were taken from both the buffer side and the matrix side of the dialysis device. These samples were transferred into new 96-well plates. Each sample was mixed with an equal volume of opposite blank matrix (buffer or matrix) to reach a final volume of 100 μL of 1:1 matrix/dialysis buffer (v/v) in each well. All samples were further processed by adding 500 μL of stop solution containing internal standards. The mixture was vortexed and centrifuged at 4000 rpm for about 20 minutes. An aliquot of 100 μL of supernatant of all the samples was then removed for LC-MS/MS analysis • 5. The single blank samples were prepared by transferring […] of blank matrix to a 96 well plate and adding 50 μL of blank PBS buffer to each well. The blank plasma must match the species of plasma used in the plasma side of the well. […]
(§2) The % Unbound and % Bound were calculated using the following equations: […]

[4] = Plasma protein binding test, mouse; type: in vitro ADME
Description: as §1, §2

[5] = target: TYK2 (Mus musculus (Mouse), UniProt Q9R117); test: Luciferase assay in L929 ISRE cells stimulated with IFN-α; type: cell-based; conditions: IFN-α 100 ng/mL; for inhibition at 0.1 µM: 100 nM, read-out: Inhibitory activity % (100 nM); for inhibition at 1 µM: 1000 nM, read-out: Inhibitory activity % (1000 nM); for inhibition at 0.05 µM: 50 nM, read-out: Inhibitory activity % (50 nM); for inhibition at 0.2 µM: 200 nM, read-out: Inhibitory activity % (200 nM)
Chain of TYK2 (Q9R117 whole entry): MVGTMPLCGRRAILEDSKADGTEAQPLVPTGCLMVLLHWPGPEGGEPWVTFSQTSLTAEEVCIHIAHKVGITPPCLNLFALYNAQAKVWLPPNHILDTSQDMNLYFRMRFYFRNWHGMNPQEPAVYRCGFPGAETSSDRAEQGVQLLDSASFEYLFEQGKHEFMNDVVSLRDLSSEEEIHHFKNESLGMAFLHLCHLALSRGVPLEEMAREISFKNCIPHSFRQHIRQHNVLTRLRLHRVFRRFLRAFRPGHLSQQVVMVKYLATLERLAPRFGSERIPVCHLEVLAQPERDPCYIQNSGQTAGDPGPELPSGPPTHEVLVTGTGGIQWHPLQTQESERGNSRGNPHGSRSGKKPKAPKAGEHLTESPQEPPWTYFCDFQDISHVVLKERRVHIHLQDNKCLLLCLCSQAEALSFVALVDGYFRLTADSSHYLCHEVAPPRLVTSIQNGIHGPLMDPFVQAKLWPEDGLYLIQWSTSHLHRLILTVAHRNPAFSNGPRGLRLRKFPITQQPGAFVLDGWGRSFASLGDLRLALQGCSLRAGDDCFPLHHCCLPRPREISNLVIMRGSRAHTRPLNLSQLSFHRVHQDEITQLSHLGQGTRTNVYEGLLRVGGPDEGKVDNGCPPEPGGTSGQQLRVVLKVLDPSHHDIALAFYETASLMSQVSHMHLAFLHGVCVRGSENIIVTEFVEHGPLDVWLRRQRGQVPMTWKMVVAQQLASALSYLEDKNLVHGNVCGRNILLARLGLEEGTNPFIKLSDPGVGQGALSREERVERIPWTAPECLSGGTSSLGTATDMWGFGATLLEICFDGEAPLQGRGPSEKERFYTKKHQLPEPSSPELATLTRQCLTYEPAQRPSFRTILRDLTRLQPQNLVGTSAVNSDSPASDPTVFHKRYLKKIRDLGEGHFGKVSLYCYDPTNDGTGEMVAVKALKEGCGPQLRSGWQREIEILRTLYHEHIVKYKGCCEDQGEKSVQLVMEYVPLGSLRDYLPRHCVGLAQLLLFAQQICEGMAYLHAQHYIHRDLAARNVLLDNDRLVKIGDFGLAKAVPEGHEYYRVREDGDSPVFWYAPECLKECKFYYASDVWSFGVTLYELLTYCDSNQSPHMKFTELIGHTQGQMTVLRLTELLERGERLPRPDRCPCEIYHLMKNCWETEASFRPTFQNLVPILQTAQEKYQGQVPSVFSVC
Description: • 1. L929 ISRE cells (5000 cells/well) were seeded on 96-well plates and incubated overnight at room temperature; • 2. The cells were pretreated by adding different concentrations (10 nM, 50 nM, 100 nM, 200 nM or 1000 nM) of the test compounds for 2 hours; • 3. Added IFN-α (100 ng/mL) to stimulate cells for 6 hours; • 4. Removed the upper medium, add PBS (100 μL) and washed, then removed PBS; • 5. Added PLB lysis solution (50 μL) to each well, shook the well for 15 minutes; • 6. Transferred PLB lysis solution (30 μL) to a new 96-well whiteboard, added LAR II reagent (LAR II), then quickly read the […]; • 7. Added Stop & Glo reagent (30 μL), then read the 450 nm OD value using the plate washer. • 8. The final results in Table 3 were the OD value in step 6/OD value in step 7.

Structure (SMILES)	kinetic solubility (in words) [1]	solubility kinetic at 2 h [1] [µM]	IC50 [2] [µM]	inhibition on hERG channel (in words) [2]	fraction unbound at 4 h, 2 μM [3]	fraction unbound at 4 h, 2 μM [4]	inhibition at 0.01 µM ([5]; 10 nM, read-out: Inhibitory activity % (10 nM)) [%]	inhibition at 0.1 µM [5] [%]	inhibition at 1 µM [5] [%]	inhibition at 0.05 µM [5] [%]	inhibition at 0.2 µM [5] [%]
CCC(=O)c1cnc(NC(=O)C2CC2)cc1Nc1cccc(-c2cc(P(C)(C)=O)n(C)n2)c1OC [Compound B2, N-(4-((3-(5-(dimethylphosphoryl)-1-methyl-1H-pyrazol-3-yl)-2-methoxyphenyl)amino)-5-propionylpyridin-2-yl)cyclopropanecarboxamide]	good	52.4 (≈ 26 µg/mL)	> 30	no inhibition	0.119	0.067	45	58	94		
[2H]C([2H])([2H])n1nc(-c2cccc(Nc3cc(NC(=O)C4CC4)ncc3C(=O)CC)c2OC)cc1P(C)(C)=O [Compound B22]	good	91.9 (≈ 45.8 µg/mL)	> 30	no inhibition	0.156	0.03		43	83		
CCC(=O)c1cnc(NC(=O)C2CC2)cc1Nc1cccc(-c2cc(P(=O)(C3CC3)C3CC3)n(C)n2)c1OC [Compound B37, N-(4-((3-(5-(dicyclopropylphosphoryl)-1-methyl-1H-pyrazol-3-yl)-2-methoxyphenyl)amino)-5-propionylpyridin-2-yl)cyclopropanecarboxamide]			> 30	no inhibition					97	89	95
[2H]C([2H])([2H])NC(=O)c1nnc(NC(=O)C2CC2)cc1Nc1cccc(-c2cc(P(=O)(C3CC3)C3CC3)n(C)n2)c1OC [Compound B41, 6-(cyclopropanecarboxamido)-4-((3-(5-(dicyclopropylphosphoryl)-1-methyl-1H-pyrazol-3-yl)-2-methoxyphenyl)amino)-N-(methyl-d3)pyridazine-3-carboxamide]	low to moderate	11.3 (≈ 6.24 µg/mL)	> 30	no inhibition	0.019	0.018			97	86	92
